# Experimental data from patent US6699682B2, “Assay for inhibitors of fatty-acid amide hydrolase” (The Scripps Research Institute, priority 1995, dated 2004).
# Tests used:
# [1] = target: T1, human recombinant expressed FAAH (Homo sapiens, UniProt O00519); test: oleamide hydrolysis by COS-7 cells transfected with human oleamide hydrolase (TLC); type: biochemical; details: versus control COS-7 cells
# T1 construct: expressed in transfected cells; host or cells: COS-7 cells, transient, pcDNA3; dounce-homogenised cell extract
# T1 sequence (O00519 1-579): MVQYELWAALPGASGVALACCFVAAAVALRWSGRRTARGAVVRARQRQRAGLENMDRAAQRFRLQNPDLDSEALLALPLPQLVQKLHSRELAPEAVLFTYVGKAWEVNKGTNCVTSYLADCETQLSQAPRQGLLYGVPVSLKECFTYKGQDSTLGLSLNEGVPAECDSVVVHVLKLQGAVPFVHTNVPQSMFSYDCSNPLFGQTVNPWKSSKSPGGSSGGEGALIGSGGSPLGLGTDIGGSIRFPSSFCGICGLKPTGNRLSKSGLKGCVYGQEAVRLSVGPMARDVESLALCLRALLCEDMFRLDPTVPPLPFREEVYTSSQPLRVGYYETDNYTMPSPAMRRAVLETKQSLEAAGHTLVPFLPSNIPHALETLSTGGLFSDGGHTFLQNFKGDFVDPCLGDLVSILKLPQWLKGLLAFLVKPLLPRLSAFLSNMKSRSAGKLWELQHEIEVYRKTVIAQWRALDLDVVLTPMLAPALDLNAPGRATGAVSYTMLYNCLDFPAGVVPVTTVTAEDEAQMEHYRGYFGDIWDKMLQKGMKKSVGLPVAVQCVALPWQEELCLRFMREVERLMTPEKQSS
# Protocol: For preparing the rat, mouse and human FAAH recombinant protein, the corresponding FAAH cDNAs were excised from the Bluescript II vectors and separately ligated into the eukaryotic expression vector, pcDNA3 (Invitrogen, San Diego, Calif.). 100 mm dishes of COS-7 cells were grown at 37° C. to 70% confluency in complete medium (DMEM with L-glutamine, non-essential amino acids, sodium pyruvate and fetal bovine serum). The COS-7 cells were then washed with serum-free medium and treated with 5 ml of transfection solution (5-6 μg of FAAH-pcDNA3 vector were preincubated with transfectamine (Gibco-BRL) for 30 minutes in 1 ml of serum free medium, then diluted to a final volume of 5 ml with serum free medium). The COS-7 cells were incubated at 37° C. for 5 hours, at which point 10 ml of complete medium was added to the cells and incubation was continued at 37° C. for 12 hours. The transfection solution was then aspirated away from the COS-7 cells, and the cells were incubated in a fresh batch of complete medium for another 24 hours. […]
# (§1) While untransfected COS-7 cells contained negligible amounts of oleamide hydrolase activity, COS-7 cells transfected with the rat FAAH cDNA expressed high levels of oleamide hydrolase activity (FIG. 15A). The assay was performed as described in Section B where by TLC the conversion of oleamide to oleic acid was assessed.
# recombinant rat FAAH = target: T2, recombinant rat FAAH (Rattus norvegicus, UniProt P97612); test: oleamide hydrolase activity of rat FAAH-transfected COS-7 cell extract and its inhibition (TLC); type: biochemical; details: versus untransfected and control transfected cells
# T2 construct: expressed in transfected cells; host or cells: COS-7 cells, transient, pcDNA3; dounce-homogenised cell extract
# T2 sequence (P97612 1-579): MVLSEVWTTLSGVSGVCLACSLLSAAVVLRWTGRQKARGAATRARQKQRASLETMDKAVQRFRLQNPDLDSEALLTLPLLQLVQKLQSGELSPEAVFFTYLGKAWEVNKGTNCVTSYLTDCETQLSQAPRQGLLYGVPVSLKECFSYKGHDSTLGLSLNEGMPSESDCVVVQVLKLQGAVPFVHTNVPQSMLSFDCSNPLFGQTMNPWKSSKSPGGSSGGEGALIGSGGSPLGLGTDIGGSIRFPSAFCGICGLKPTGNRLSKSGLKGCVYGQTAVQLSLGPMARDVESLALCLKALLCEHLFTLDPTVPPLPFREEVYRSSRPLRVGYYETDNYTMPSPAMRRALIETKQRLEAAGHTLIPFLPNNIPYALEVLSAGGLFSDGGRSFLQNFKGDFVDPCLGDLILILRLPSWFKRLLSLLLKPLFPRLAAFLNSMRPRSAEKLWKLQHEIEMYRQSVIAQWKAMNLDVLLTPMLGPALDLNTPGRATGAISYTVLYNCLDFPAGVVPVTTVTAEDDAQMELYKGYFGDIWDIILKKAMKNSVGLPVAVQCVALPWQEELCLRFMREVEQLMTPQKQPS
# Protocol: The following thin layer chromatography (TLC) protocol is used for assaying cis-9,10 octadecenoamide hydrolysis activity, also referred to as fatty-acid amide hydrolase activity. Oleamide is first labeled with ^14C. To accomplish this, ^14C-Oleic acid (1-10 μM, Moravek Biochemicals, 5-50 μCi/μM) in CH2CL2 (200 μL, 0.005-0.05 M) at 0° C. was treated with excess oxalyl chloride and the reaction mixture was warmed to 25° C. for 6 hours. The reaction mixture was then concentrated under a constant stream of gaseous nitrogen and the remaining residue was cooled to 0° C. and treated with excess saturated aqueous ammonium hydroxide. After 5 minutes, the reaction mixture was partitioned between Et)Ac (1.5 mL) and 10% HCl (1.0 mL). The organic layer was then washed with water (1.0 mL) and concentrated under a constant stream of gaseous nitrogen to provide ^14C-oleamide in quantitative yield as judged by TLC (60% EtOAc in hexanes; oleamide Rf−0.2; oleic acid Rf−0.8). […]
# as §1, with “assessed. […]” for “assessed.”
compound,measurement,setting,value
"CCCCCCCC/C=C\CCCCCCCC(N)=O [cis-9,10-octadecenoamide, Cis-9,10-octadecenoamide]","conversion of oleamide to oleic acid by human FAAH-transfected COS-7 cells (qualitative, TLC)",[1],conversion to oleic acid is seen only in lane 2
same,"conversion of labeled substrate by rat FAAH-transfected COS-7 cells (qualitative, TLC)",recombinant rat FAAH,effective at converting labeled oleamide to oleic acid
